This is an account of results in patent US20240116985A1, “STAPLED PEPTIDES AND METHODS THEREOF” (priority 2020, published 2024).

Like-named read-outs stand apart in the source and are kept apart here.

The nature of data set [1]: CHI Log D procedure. The format is physicochemical. To be noted: for CHI Log D: pH 7.4; for chromatographic logD: pH 7.4, CHI Log D.
Data set [2] addresses T1, beta-catenin/TCF4 engagement (Homo sapiens, UniProt P35222).
T1 construct: expressed in transfected cells; host or cells: HEK293
T1 sequence (P35222 1-781): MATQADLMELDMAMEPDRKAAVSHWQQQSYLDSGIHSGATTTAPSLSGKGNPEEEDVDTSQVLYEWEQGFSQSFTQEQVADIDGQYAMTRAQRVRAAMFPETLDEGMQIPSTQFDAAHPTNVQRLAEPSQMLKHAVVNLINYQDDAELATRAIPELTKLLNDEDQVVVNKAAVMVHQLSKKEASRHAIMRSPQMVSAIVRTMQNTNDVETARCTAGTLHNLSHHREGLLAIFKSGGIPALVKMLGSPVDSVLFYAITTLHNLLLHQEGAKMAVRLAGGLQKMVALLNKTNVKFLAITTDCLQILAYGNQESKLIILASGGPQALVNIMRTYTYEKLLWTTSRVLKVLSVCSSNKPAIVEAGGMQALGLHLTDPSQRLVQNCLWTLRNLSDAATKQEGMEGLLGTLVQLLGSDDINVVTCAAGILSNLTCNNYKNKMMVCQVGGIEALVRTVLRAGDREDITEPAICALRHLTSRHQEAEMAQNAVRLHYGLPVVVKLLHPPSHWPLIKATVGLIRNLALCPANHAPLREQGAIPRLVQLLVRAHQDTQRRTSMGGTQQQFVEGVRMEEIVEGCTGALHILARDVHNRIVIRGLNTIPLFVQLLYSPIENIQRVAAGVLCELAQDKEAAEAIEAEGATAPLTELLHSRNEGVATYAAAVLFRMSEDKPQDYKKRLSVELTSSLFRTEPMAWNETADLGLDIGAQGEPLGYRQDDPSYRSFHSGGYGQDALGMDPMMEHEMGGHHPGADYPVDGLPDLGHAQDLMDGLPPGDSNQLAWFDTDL
Nature of the data set: Nano-BRET target engagement assay (B-cat-Halo & TCF4-Luc in HEK293 cells). It is filed as cell-based. (In general: BRET reads energy transfer from a luciferase to a nearby fluorophore.)

Data set [3] concerns the target T2, full-length beta-Catenin (Uniprot ID P35222) (Homo sapiens, UniProt P35222).
T2 construct: 10 nM full-length beta-Catenin (Uniprot ID P35222)
T2 sequence (P35222 1-781): T1 sequence (P35222 1-781)
Nature of the data set: Fluorescence polarization IC50 (beta-catenin / 5FAM-TCF4 10-53 competition). It is filed as binding. (In general: Polarisation of emitted light reports the rotation of a fluorescent probe.)

Setting [4] is: fluorescence polarization, beta-catenin, read-out: FP EC50.
The mark [5] stands for this setting: absolute IC50, read-out: NanoBRET Abs IC50.

Regarding `CC(=O)N1CCC[C@]12CC=CCCCC1(CCCC=CCCCOC(=O)N3CC[C@@](C(=O)N[C@@H](Cc4cccc(Cl)c4)C(=O)N[C@@H](Cc4csc5ccccc45)C(=O)N[C@@H](CCC(N)=O)C(N)=O)(C3)NC(=O)[C@H](CC(N)=O)NC(=O)[C@H](Cc3ccccc3)NC(=O)[C@H](C)NC(=O)[C@H](C)NC(=O)[C@H](CN(CC(=O)O)CC(F)(F)F)NC(=O)[C@H](CC(=O)O)NC1=O)NC(=O)[C@H](CC(C)(C)C)NC(=O)[C@H](CC(=O)O)NC2=O` (stereo partly drawn) [I-926, Ac-PL3-Asp-Npg-B5-Asp-TfeGA-Ala-Ala-Phe-Asn-PyrS2-3C1F-BztA-Gln-NH2], the “CHI Log D” value in data set [1] stood at 2.406. The figures for the IC50 in data set [2] (read-out: NanoBRET IC50), in data set [3] (setting [4]) and in data set [3] (read-out: beta-Catenin FP IC50) were 17.1 µM, 0.043 µM and 0.043 µM, respectively.

Regarding `CC(=O)N1CCC[C@]12CC=CCCCC1(CCCC=CCCCOC(=O)N3CC[C@@](C(=O)N[C@@H](Cc4ccccc4C(F)(F)F)C(=O)N[C@@H](Cc4csc5ccccc45)C(=O)N[C@@H](CCC(N)=O)C(N)=O)(C3)NC(=O)[C@H](CC(N)=O)NC(=O)[C@H](Cc3ccccc3)NC(=O)[C@H](C)NC(=O)[C@H](C)NC(=O)[C@H](CN(CC(=O)O)CC(F)(F)F)NC(=O)[C@H](CC(=O)O)NC1=O)NC(=O)[C@H](CC(C)(C)C)NC(=O)[C@H](CC(=O)O)NC2=O` (stereo partly drawn) [I-928, Ac-PL3-Asp-Npg-B5-Asp-TfeGA-Ala-Ala-Phe-Asn-PyrS2-2F3MeF-BztA-Gln-NH2], the “CHI Log D” value in data set [1] came out at 2.38. Further, the IC50 came to 6.1 µM in data set [2] (read-out: NanoBRET Abs IC50), 5 µM in data set [2] (read-out: NanoBRET IC50), 0.021 µM in data set [3] (setting [4]) and 0.021 µM in data set [3] (read-out: beta-Catenin FP IC50).

As for `CC(=O)N1CCC[C@]12CC=CCCCC1(CCCC=CCCCCCC[C@@](C)(C(=O)N[C@@H](Cc3ccccc3Cl)C(=O)N[C@@H](Cc3csc4ccccc34)C(=O)N[C@@H](CCC(N)=O)C(N)=O)NC(=O)[C@H](CC(N)=O)NC(=O)[C@H](Cc3ccccc3)NC(=O)[C@H](C)NC(=O)[C@H](C)NC(=O)[C@H](CN(CC(=O)O)CC(F)(F)F)NC(=O)[C@H](CC(=O)O)NC1=O)NC(=O)[C@H](CC(C)(C)C)NC(=O)[C@H](CC(=O)O)NC2=O` (stereo partly drawn) [I-929, Ac-PL3-Asp-Npg-B5-Asp-TfeGA-Ala-Ala-Phe-Asn-S8-2C1F-BztA-Gln-NH2], the chromatographic logD in data set [1] was 2.74. In addition, the values for the IC50 in data set [2] (read-out: NanoBRET Abs IC50), in data set [2] (read-out: NanoBRET IC50) and in data set [3] (read-out: beta-Catenin FP IC50) were 10.3 µM, 7 µM and 0.023 µM, respectively.

For `CC(=O)N1CCC[C@]12CC=CCCCC1(CCCC=CCCCCCC[C@@](C)(C(=O)N[C@@H](Cc3ccccc3Cl)C(=O)N[C@@H](Cc3csc4ccccc34)C(=O)N[C@@H](CCC(N)=O)C(N)=O)NC(=O)[C@H]([C@@H](C)O)NC(=O)[C@H](Cc3ccccc3)NC(=O)[C@H](C)NC(=O)[C@H](C)NC(=O)[C@H](CN(CC(=O)O)CC(F)(F)F)NC(=O)[C@H](CC(=O)O)NC1=O)NC(=O)[C@H](CC(C)(C)C)NC(=O)[C@H](CC(=O)O)NC2=O` (stereo partly drawn) [I-930, Ac-PL3-Asp-Npg-B5-Asp-TfeGA-Ala-Ala-Phe-Thr-S8-2C1F-BztA-Gln-NH2], the chromatographic logD in data set [1] amounted to 2.96. In addition, the IC50 stood at 13.5 µM in data set [2] (read-out: NanoBRET Abs IC50), 5.6 µM in data set [2] (read-out: NanoBRET IC50) and 0.037 µM in data set [3] (read-out: beta-Catenin FP IC50).

In turn, `CC(=O)N1CCC[C@]12CC=CCCCC1(CCCC=CCCCCCC[C@@](C)(C(=O)N[C@@H](Cc3ccccc3Br)C(=O)N[C@@H](Cc3csc4ccccc34)C(=O)N[C@@H](CCC(N)=O)C(N)=O)NC(=O)[C@H](CC(N)=O)NC(=O)[C@H](Cc3ccccc3)NC(=O)[C@H](C)NC(=O)[C@H](C)NC(=O)[C@H](CN(CC(=O)O)CC(F)(F)F)NC(=O)[C@H](CC(=O)O)NC1=O)NC(=O)[C@H](CC(C)(C)C)NC(=O)[C@H](CC(=O)O)NC2=O` (stereo partly drawn) [I-932, Ac-PL3-Asp-Npg-B5-Asp-TfeGA-Ala-Ala-Phe-Asn-S8-2BrF-BztA-Gln-NH2] displayed a chromatographic logD in data set [1] of 2.77. Besides, the IC50 turned out to be 11.4 µM in data set [2] (setting [5]) and 0.035 µM in data set [3] (read-out: beta-Catenin FP IC50).

In turn, `CC(=O)N1CCC[C@]12CC=CCCCC1(CCCC=CCCCCCC[C@@](C)(C(=O)N[C@@H](Cc3cccc(Cl)c3)C(=O)N[C@@H](Cc3csc4ccccc34)C(=O)N[C@@H](CCC(N)=O)C(N)=O)NC(=O)[C@H](CC(N)=O)NC(=O)[C@H](Cc3ccccc3)NC(=O)[C@H](C)NC(=O)[C@H](C)NC(=O)[C@H](CN(CC(=O)O)CC(F)(F)F)NC(=O)[C@H](CC(=O)O)NC1=O)NC(=O)[C@H](CC(C)(C)C)NC(=O)[C@H](CC(=O)O)NC2=O` (stereo partly drawn) [I-933, Ac-PL3-Asp-Npg-B5-Asp-TfeGA-Ala-Ala-Phe-Asn-S8-3C1F-BztA-Gln-NH2] came in with a chromatographic logD in data set [1] of 3.03. The IC50 in data set [2] (read-out: NanoBRET Abs IC50) was 22.2 µM; in data set [2] (read-out: NanoBRET IC50) it was greater than 20 µM; in data set [3] (read-out: beta-Catenin FP IC50), 0.168 µM.

In turn, `C#CCOCCC(=O)NCCCC[C@H](NC(=O)[C@H](CCC(N)=O)NC(=O)[C@H](Cc1csc2ccccc12)NC(=O)[C@H](Cc1ccsc1)NC(=O)[C@]12CCN(C1)C(=O)OCCCC=CCCCC1(CCCC=CC[C@]3(CCCN3C(C)=O)C(=O)N[C@@H](CC(=O)O)C(=O)N[C@@H](CC(C)(C)C)C(=O)N1)C(=O)N[C@@H](CC(=O)O)C(=O)N[C@@H](CC(=O)O)C(=O)N[C@@H](C)C(=O)N[C@@H](C)C(=O)N[C@@H](Cc1ccccc1)C(=O)N[C@@H](CC(N)=O)C(=O)N2)C(N)=O` (stereo partly drawn) [I-935, Ac-PL3-Asp-Npg-B5-Asp-Asp-Ala-Ala-Phe-Asn-PyrS2-3Thi-BztA-Gln-[PropynPEG1]Lys-NH2] had a chromatographic logD in data set [1] of 1.93. Besides, the values for the IC50 in data set [2] (read-out: NanoBRET Abs IC50) and in data set [3] (read-out: beta-Catenin FP IC50) were 33.1 µM and 0.008 µM, respectively.

As for `C#CCOCCOCCC(=O)NCCCC[C@H](NC(=O)[C@H](CCC(N)=O)NC(=O)[C@H](Cc1csc2ccccc12)NC(=O)[C@H](Cc1ccsc1)NC(=O)[C@]12CCN(C1)C(=O)OCCCC=CCCCC1(CCCC=CC[C@]3(CCCN3C(C)=O)C(=O)N[C@@H](CC(=O)O)C(=O)N[C@@H](CC(C)(C)C)C(=O)N1)C(=O)N[C@@H](CC(=O)O)C(=O)N[C@@H](CC(=O)O)C(=O)N[C@@H](C)C(=O)N[C@@H](C)C(=O)N[C@@H](Cc1ccccc1)C(=O)N[C@@H](CC(N)=O)C(=O)N2)C(N)=O` (stereo partly drawn) [I-936, Ac-PL3-Asp-Npg-B5-Asp-Asp-Ala-Ala-Phe-Asn-PyrS2-3Thi-BztA-Gln-[PropynPEG2]Lys-NH2], in data set [1], the chromatographic logD is 1.94. Further, the values for the IC50 in data set [2] (read-out: NanoBRET Abs IC50) and in data set [3] (read-out: beta-Catenin FP IC50) were 22.2 µM and 0.007 µM, respectively.

`C#CCOCCOCCOCCC(=O)NCCCC[C@H](NC(=O)[C@H](CCC(N)=O)NC(=O)[C@H](Cc1csc2ccccc12)NC(=O)[C@H](Cc1ccsc1)NC(=O)[C@]12CCN(C1)C(=O)OCCCC=CCCCC1(CCCC=CC[C@]3(CCCN3C(C)=O)C(=O)N[C@@H](CC(=O)O)C(=O)N[C@@H](CC(C)(C)C)C(=O)N1)C(=O)N[C@@H](CC(=O)O)C(=O)N[C@@H](CC(=O)O)C(=O)N[C@@H](C)C(=O)N[C@@H](C)C(=O)N[C@@H](Cc1ccccc1)C(=O)N[C@@H](CC(N)=O)C(=O)N2)C(N)=O` (stereo partly drawn) [I-937, Ac-PL3-Asp-Npg-B5-Asp-Asp-Ala-Ala-Phe-Asn-PyrS2-3Thi-BztA-Gln-[PropynPEG3]Lys-NH2] gave a chromatographic logD in data set [1] of 1.94. For the same compound, the IC50 in data set [2] (read-out: NanoBRET Abs IC50) is 28.8 µM; in data set [3] (read-out: beta-Catenin FP IC50), 0.009 µM.

Regarding `CC(=O)N1CCC[C@]12CC=CCCCC1(CCCC=CCCCOC(=O)N3CC[C@@](C(=O)N[C@@H](Cc4ccccc4Cl)C(=O)N[C@@H](Cc4csc5ccccc45)C(=O)N[C@@H](CCC(N)=O)C(N)=O)(C3)NC(=O)[C@H](CC(N)=O)NC(=O)[C@H](Cc3ccccc3)NC(=O)[C@H](C)NC(=O)[C@H](CO)NC(=O)[C@H](CN(CC(=O)O)CC(F)(F)F)NC(=O)[C@H](CC(=O)O)NC1=O)NC(=O)[C@H](CC(C)(C)C)NC(=O)[C@H](CC(=O)O)NC2=O` (stereo partly drawn) [I-1009, Ac-PL3-Asp-Npg-B5-Asp-TfeGA-Ser-Ala-Phe-Asn-PyrS2-2C1F-BztA-Gln-NH2], in data set [1], the chromatographic logD worked out at 2.04. Moreover, the IC50 in data set [2] (setting [5]) stood at 33.3 µM; in data set [3] (read-out: beta-Catenin FP IC50) it was 0.011 µM.

The compound `CC[C@H](C)[C@@H]1NC(=O)[C@H](CN(CC(=O)O)CC(F)(F)F)NC(=O)[C@H](CC(=O)O)NC(=O)C2(CCCC=CCCCOC(=O)N3CC[C@@](C(=O)N[C@@H](Cc4ccccc4Cl)C(=O)N[C@@H](Cc4csc5ccccc45)C(=O)N[C@@H](CCC(N)=O)C(N)=O)(C3)NC(=O)[C@H](CC(N)=O)NC(=O)[C@H](Cc3ccccc3)NC(=O)[C@H](C)NC1=O)CCCC=CC[C@]1(CCCN1C(C)=O)C(=O)N[C@@H](CC(=O)O)C(=O)N[C@@H](CC(C)(C)C)C(=O)N2` (stereo partly drawn) [I-1010, Ac-PL3-Asp-Npg-B5-Asp-TfeGA-Ile-Ala-Phe-Asn-PyrS2-2C1F-BztA-Gln-NH2] yielded a chromatographic logD in data set [1] of 2.36. Besides, the IC50 amounted to 13.3 µM in data set [2] (setting [5]) and 0.008 µM in data set [3] (read-out: beta-Catenin FP IC50).

The chromatographic logD is lipophilicity estimated from chromatographic retention. A higher chromatographic logD goes with higher lipophilicity.
